# Values of other authors, collected in patent US12358889B2, “Vaporizable alkaloid compositions and methods of use thereof” (Ready Mix Naturals, LLC, priority 2023, dated 2025).
# Legend:
# [1] = target: TRPV1 (Homo sapiens, UniProt Q8NER1); conditions: among phytocannabinoids
# [2] = target: TRPA1 (Homo sapiens, UniProt O75762)
# [3] = target: T1, TRPV2 (Homo sapiens, UniProt Q9Y5S1); conditions: among phytocannabinoids
# T1 sequence (Q9Y5S1 1-764): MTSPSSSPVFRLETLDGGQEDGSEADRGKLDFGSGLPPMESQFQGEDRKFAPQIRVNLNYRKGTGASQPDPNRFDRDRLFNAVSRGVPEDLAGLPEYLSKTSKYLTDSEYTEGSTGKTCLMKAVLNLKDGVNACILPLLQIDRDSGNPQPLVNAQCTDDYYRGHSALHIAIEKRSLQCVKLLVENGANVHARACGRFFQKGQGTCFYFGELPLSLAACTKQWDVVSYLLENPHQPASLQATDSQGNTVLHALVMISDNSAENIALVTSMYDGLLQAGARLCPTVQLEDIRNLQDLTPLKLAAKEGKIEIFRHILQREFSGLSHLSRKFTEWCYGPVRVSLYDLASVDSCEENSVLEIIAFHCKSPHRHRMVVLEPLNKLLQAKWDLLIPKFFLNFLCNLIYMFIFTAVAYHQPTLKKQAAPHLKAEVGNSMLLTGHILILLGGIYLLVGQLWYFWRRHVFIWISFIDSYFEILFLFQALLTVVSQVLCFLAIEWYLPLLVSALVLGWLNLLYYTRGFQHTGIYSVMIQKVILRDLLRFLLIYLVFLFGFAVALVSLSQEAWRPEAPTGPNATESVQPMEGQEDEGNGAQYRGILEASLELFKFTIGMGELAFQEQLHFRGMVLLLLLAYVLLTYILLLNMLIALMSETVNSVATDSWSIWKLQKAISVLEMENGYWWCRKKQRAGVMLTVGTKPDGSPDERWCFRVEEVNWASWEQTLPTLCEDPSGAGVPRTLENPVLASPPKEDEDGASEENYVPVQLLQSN
# TRPA1, sequence (O75762 whole entry, species assumed): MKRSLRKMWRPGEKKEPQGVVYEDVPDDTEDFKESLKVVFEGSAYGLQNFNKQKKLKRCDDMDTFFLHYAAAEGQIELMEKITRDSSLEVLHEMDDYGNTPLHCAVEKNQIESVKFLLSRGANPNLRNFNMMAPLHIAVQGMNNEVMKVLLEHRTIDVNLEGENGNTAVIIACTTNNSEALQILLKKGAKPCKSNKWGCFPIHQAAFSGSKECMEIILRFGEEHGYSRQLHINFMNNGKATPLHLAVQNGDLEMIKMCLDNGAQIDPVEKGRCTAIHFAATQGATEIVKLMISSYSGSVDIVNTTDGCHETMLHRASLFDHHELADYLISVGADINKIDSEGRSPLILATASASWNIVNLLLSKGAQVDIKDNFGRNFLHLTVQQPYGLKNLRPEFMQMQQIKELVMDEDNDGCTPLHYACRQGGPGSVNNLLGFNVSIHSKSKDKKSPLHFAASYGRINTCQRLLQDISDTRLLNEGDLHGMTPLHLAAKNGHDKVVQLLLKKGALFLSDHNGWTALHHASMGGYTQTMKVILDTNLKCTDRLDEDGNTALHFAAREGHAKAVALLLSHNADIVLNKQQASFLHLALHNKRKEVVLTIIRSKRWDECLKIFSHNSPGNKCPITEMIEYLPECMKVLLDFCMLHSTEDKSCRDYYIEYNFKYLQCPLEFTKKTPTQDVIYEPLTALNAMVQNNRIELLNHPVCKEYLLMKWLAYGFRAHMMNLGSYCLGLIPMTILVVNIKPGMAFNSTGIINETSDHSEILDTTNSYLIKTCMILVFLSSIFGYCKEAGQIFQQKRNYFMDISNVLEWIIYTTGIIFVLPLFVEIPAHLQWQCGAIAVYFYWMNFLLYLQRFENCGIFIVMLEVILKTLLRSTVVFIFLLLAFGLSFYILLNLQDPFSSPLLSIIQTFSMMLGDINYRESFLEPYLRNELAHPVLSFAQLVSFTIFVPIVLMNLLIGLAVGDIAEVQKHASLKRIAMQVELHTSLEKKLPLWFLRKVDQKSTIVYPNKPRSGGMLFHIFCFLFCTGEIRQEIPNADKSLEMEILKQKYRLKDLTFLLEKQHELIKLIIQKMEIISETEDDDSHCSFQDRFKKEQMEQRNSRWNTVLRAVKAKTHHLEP
# TRPV1, sequence (Q8NER1 whole entry, species assumed): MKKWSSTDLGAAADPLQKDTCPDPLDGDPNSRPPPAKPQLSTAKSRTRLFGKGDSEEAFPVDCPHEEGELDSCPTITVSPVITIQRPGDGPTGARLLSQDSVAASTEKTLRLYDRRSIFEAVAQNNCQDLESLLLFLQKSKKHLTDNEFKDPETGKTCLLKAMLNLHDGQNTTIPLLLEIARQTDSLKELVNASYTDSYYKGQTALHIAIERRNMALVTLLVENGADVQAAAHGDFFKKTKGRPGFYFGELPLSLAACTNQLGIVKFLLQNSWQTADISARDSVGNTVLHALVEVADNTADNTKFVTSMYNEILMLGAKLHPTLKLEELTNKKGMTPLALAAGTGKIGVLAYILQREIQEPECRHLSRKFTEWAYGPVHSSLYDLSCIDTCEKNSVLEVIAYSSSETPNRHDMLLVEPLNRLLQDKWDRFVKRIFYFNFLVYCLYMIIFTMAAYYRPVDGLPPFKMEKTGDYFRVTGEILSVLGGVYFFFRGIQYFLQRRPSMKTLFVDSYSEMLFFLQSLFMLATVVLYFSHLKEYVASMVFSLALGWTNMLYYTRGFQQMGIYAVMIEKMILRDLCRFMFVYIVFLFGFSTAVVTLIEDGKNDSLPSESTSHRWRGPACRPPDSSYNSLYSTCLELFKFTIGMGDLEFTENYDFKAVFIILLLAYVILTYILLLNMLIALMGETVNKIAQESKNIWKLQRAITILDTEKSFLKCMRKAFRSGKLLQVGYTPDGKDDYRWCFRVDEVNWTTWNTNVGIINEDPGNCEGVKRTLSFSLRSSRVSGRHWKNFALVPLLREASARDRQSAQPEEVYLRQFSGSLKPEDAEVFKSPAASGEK
SMILES,agonism of TRPV1 [1],activation of TRPA1 [2],activation of TRPV2 [3]
"C=C(C)[C@@H]1CCC(C)=C[C@H]1c1c(O)cc(CCCCC)cc1O [CBD, cannabidiol]",most potent and efficacious phytocannabinoid agonist of TRPV1,–,–
CN1CCCC1c1cccnc1 (stereo not shown) [nicotine],–,known activator of TRPA1,–
"CCCCCc1cc(O)c2c(c1)OC(C)(C)[C@@H]1CCC(C)=C[C@@H]21 [Δ^9-THC, Δ^9-tetrahydrocannabinol]",–,also activates TRPA1,most potent phytocannabinoid for activating TRPV2
